Assay results taken from ChEMBL document CHEMBL4507282, “Data for DCP probe BI-1950” (2021).

Experiments:
[1] = target: Serine/threonine-protein kinase haspin (Homo sapiens) (UniProt Q8TF76); settings: Compound concentration 1000.0 nM
[2] = target: SRSF protein kinase 3 (Homo sapiens) (UniProt Q9UPE1); settings: Compound concentration 1000.0 nM
[3] = target: Protein kinase C epsilon type (Homo sapiens) (UniProt Q02156); settings: Compound concentration 1000.0 nM
[4] = system: Proto-oncogene tyrosine-protein kinase receptor Ret (Homo sapiens), P07949 [V804M]; settings: Compound concentration 1000.0 nM
[5] = target: Cyclin-G-associated kinase (Homo sapiens) (UniProt O14976); settings: Compound concentration 1000.0 nM
[6] = target: Macrophage colony-stimulating factor 1 receptor (Homo sapiens) (UniProt P07333); settings: Compound concentration 1000.0 nM
[7] = target: Calcium/calmodulin-dependent protein kinase type II subunit alpha (Homo sapiens) (UniProt Q9UQM7); settings: Compound concentration 1000.0 nM
[8] = target: Serine/threonine-protein kinase TNNI3K (Homo sapiens) (UniProt Q59H18); settings: Compound concentration 1000.0 nM
[9] = target: Casein kinase I isoform gamma-3 (Homo sapiens) (UniProt Q9Y6M4); settings: Compound concentration 1000.0 nM
[10] = target: Dual specificity tyrosine-phosphorylation-regulated kinase 1B (Homo sapiens) (UniProt Q9Y463); settings: Compound concentration 1000.0 nM
[11] = target: 1-phosphatidylinositol 3-phosphate 5-kinase (Homo sapiens) (UniProt Q9Y2I7); settings: Compound concentration 1000.0 nM
[12] = target: Serine/threonine-protein kinase PAK 4 (Homo sapiens) (UniProt O96013); settings: Compound concentration 1000.0 nM
[13] = target: Cyclin-dependent kinase 13 (Homo sapiens) (UniProt Q14004); settings: Compound concentration 1000.0 nM
[14] = target: Serine/threonine-protein kinase Sgk3 (Homo sapiens) (UniProt Q96BR1); settings: Compound concentration 1000.0 nM
[15] = target: Rho-associated protein kinase 2 (Homo sapiens) (UniProt O75116); settings: Compound concentration 1000.0 nM
[16] = system: Proto-oncogene tyrosine-protein kinase receptor Ret (Homo sapiens), P07949 [M918T]; settings: Compound concentration 1000.0 nM
[17] = target: Tyrosine-protein kinase Mer (Homo sapiens) (UniProt Q12866); settings: Compound concentration 1000.0 nM
[18] = target: Insulin receptor (Homo sapiens) (UniProt P06213); settings: Compound concentration 1000.0 nM
[19] = target: Alpha-2B adrenergic receptor (Homo sapiens) (UniProt P18089); settings: Compound concentration 10.0 uM
[20] = target: Serine/threonine-protein kinase PknB (Mycobacterium tuberculosis) (UniProt P9WI81); settings: Compound concentration 1000.0 nM
[21] = target: Ribosomal protein S6 kinase alpha-3 (Homo sapiens) (UniProt P51812); settings: Compound concentration 1000.0 nM
[22] = target: Serine/threonine-protein kinase D1 (Homo sapiens) (UniProt Q15139); settings: Compound concentration 1000.0 nM
[23] = system: Epidermal growth factor receptor (Homo sapiens), P00533 [L858R,T790M]; settings: Compound concentration 1000.0 nM
[24] = target: Ephrin type-A receptor 5 (Homo sapiens) (UniProt P54756); settings: Compound concentration 1000.0 nM
[25] = target: Ephrin type-A receptor 2 (Homo sapiens) (UniProt P29317); settings: Compound concentration 1000.0 nM
[26] = target: Serine/threonine-protein kinase PAK 2 (Homo sapiens) (UniProt Q13177); settings: Compound concentration 1000.0 nM
[27] = target: Histamine H1 receptor (Homo sapiens) (UniProt P35367); settings: Compound concentration 10.0 uM
[28] = target: Calcium/calmodulin-dependent protein kinase type 1B (Homo sapiens) (UniProt Q6P2M8); settings: Compound concentration 1000.0 nM
[29] = target: Serine/threonine-protein kinase 35 (Homo sapiens) (UniProt Q8TDR2); settings: Compound concentration 1000.0 nM
[30] = target: Interleukin-1 receptor-associated kinase 4 (Homo sapiens) (UniProt Q9NWZ3); settings: Compound concentration 1000.0 nM
[31] = target: Mitogen-activated protein kinase 6 (Homo sapiens) (UniProt Q16659); settings: Compound concentration 1000.0 nM
[32] = target: Mitogen-activated protein kinase 13 (Homo sapiens) (UniProt O15264); settings: Compound concentration 1000.0 nM
[33] = system: Mast/stem cell growth factor receptor Kit (Homo sapiens), P10721 [D816V]; settings: Compound concentration 1000.0 nM
[34] = target: Serine/threonine-protein kinase NIM1 (Homo sapiens) (UniProt Q8IY84); settings: Compound concentration 1000.0 nM
[35] = target: NUAK family SNF1-like kinase 1 (Homo sapiens) (UniProt O60285); settings: Compound concentration 1000.0 nM
[36] = target: SNF-related serine/threonine-protein kinase (Homo sapiens) (UniProt Q9NRH2); settings: Compound concentration 1000.0 nM
[37] = target: Phosphatidylinositol 3-kinase C2 domain-containing subunit gamma (Homo sapiens) (UniProt O75747); settings: Compound concentration 1000.0 nM
[38] = target: Testis-specific serine/threonine-protein kinase 1 (Homo sapiens) (UniProt Q9BXA7); settings: Compound concentration 1000.0 nM
[39] = system: eIF-2-alpha kinase GCN2 (Homo sapiens), Q9P2K8 [S808G]; settings: Compound concentration 1000.0 nM
[40] = system: Fibroblast growth factor receptor 3 (Homo sapiens), P22607 [G697C]; settings: Compound concentration 1000.0 nM
[41] = system: Receptor-type tyrosine-protein kinase FLT3 (Homo sapiens), P36888 [UNDEFINED MUTATION]; settings: Compound concentration 1000.0 nM
[42] = target: Beta-1 adrenergic receptor (Homo sapiens) (UniProt P08588); settings: Compound concentration 10.0 uM
[43] = target: Hormonally up-regulated neu tumor-associated kinase (Homo sapiens) (UniProt P57058); settings: Compound concentration 1000.0 nM
[44] = target: Activin receptor type-1-like (Homo sapiens) (UniProt P37023); settings: Compound concentration 1000.0 nM
[45] = target: 5-hydroxytryptamine receptor 1E (Homo sapiens) (UniProt P28566); settings: Compound concentration 10.0 uM

Rho-associated protein kinase 2 (Homo sapiens), sequence (O75116 whole entry, looked up): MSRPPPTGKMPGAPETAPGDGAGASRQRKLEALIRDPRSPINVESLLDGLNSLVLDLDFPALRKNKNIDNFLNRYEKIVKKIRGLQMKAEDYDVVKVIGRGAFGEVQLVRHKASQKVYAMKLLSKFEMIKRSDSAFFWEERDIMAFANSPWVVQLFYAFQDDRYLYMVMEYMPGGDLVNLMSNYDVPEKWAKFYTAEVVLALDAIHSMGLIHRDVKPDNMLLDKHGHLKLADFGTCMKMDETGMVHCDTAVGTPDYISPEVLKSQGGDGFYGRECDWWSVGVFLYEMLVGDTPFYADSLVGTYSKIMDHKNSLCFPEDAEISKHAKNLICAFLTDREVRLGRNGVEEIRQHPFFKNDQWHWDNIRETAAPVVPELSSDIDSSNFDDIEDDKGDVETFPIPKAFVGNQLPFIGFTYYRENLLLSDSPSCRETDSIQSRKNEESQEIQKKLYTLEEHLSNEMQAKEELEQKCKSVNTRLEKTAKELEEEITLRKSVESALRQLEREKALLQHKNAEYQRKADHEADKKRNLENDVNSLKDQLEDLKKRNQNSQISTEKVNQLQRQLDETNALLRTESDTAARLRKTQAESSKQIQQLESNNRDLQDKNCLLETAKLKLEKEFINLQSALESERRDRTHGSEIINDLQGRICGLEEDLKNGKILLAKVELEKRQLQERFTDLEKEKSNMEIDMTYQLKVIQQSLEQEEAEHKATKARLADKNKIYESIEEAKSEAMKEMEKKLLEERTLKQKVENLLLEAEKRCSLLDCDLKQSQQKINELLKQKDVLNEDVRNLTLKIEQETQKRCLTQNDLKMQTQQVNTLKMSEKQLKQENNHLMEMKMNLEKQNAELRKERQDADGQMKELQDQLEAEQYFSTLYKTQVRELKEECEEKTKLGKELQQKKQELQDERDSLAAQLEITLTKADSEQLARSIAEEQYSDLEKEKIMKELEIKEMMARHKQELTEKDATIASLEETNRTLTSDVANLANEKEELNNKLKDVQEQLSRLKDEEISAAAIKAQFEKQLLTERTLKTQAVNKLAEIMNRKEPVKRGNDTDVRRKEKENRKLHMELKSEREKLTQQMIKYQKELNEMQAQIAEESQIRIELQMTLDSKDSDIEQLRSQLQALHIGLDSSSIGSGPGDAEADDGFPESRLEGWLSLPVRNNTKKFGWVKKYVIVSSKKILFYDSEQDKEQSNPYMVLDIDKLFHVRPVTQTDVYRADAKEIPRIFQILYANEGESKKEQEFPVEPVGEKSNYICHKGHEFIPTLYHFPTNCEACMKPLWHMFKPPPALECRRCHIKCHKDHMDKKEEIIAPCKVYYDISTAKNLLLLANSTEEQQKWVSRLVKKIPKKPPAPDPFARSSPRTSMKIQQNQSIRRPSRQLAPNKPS
Serine/threonine-protein kinase Sgk3 (Homo sapiens), sequence (Q96BR1 whole entry): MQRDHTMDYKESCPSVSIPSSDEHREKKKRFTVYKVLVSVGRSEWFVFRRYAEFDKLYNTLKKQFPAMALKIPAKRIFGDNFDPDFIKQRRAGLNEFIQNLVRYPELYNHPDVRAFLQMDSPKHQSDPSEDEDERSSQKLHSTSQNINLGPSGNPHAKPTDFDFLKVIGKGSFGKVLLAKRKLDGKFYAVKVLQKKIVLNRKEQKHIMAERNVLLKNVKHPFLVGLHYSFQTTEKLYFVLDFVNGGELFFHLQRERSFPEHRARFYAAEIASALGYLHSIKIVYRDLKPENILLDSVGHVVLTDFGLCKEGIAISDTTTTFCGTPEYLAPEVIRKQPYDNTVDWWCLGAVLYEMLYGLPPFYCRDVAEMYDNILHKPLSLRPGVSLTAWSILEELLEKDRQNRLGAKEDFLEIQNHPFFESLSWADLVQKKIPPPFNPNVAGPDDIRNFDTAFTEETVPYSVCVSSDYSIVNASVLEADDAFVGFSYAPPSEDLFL
Beta-1 adrenergic receptor (Homo sapiens), sequence (P08588 whole entry, looked up): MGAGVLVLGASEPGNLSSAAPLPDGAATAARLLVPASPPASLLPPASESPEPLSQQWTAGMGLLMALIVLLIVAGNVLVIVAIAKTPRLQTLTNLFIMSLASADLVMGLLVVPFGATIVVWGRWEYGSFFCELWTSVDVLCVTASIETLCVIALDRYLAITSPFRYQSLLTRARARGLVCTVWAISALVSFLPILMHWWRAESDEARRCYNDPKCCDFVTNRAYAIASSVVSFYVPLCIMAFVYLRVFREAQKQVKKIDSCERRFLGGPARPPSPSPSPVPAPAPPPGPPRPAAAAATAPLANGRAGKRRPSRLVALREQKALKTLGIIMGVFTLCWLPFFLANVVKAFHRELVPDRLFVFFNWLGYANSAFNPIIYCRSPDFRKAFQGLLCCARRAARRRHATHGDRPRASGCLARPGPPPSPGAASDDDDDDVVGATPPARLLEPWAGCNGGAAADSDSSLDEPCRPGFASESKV
Hormonally up-regulated neu tumor-associated kinase (Homo sapiens), sequence (P57058 whole entry): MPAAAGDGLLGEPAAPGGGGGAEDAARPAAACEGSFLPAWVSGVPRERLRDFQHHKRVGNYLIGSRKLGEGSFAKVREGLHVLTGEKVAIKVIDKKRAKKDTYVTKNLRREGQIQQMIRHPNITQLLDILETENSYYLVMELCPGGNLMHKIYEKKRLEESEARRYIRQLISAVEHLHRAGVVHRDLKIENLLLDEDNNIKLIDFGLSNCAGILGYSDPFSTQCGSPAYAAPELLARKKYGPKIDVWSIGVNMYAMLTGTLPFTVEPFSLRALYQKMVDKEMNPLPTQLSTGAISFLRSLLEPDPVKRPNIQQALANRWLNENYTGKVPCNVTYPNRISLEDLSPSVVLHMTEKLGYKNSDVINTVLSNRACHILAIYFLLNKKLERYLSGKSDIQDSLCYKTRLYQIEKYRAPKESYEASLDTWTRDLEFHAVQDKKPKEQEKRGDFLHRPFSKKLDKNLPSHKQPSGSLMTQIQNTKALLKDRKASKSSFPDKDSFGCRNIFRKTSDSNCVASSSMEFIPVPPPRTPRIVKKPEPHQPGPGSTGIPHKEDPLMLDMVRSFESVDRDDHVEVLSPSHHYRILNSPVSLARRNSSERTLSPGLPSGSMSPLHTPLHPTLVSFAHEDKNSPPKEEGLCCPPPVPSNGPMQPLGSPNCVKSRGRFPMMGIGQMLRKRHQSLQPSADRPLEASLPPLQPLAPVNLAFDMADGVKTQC
Cyclin-dependent kinase 13 (Homo sapiens), sequence (Q14004 whole entry, looked up): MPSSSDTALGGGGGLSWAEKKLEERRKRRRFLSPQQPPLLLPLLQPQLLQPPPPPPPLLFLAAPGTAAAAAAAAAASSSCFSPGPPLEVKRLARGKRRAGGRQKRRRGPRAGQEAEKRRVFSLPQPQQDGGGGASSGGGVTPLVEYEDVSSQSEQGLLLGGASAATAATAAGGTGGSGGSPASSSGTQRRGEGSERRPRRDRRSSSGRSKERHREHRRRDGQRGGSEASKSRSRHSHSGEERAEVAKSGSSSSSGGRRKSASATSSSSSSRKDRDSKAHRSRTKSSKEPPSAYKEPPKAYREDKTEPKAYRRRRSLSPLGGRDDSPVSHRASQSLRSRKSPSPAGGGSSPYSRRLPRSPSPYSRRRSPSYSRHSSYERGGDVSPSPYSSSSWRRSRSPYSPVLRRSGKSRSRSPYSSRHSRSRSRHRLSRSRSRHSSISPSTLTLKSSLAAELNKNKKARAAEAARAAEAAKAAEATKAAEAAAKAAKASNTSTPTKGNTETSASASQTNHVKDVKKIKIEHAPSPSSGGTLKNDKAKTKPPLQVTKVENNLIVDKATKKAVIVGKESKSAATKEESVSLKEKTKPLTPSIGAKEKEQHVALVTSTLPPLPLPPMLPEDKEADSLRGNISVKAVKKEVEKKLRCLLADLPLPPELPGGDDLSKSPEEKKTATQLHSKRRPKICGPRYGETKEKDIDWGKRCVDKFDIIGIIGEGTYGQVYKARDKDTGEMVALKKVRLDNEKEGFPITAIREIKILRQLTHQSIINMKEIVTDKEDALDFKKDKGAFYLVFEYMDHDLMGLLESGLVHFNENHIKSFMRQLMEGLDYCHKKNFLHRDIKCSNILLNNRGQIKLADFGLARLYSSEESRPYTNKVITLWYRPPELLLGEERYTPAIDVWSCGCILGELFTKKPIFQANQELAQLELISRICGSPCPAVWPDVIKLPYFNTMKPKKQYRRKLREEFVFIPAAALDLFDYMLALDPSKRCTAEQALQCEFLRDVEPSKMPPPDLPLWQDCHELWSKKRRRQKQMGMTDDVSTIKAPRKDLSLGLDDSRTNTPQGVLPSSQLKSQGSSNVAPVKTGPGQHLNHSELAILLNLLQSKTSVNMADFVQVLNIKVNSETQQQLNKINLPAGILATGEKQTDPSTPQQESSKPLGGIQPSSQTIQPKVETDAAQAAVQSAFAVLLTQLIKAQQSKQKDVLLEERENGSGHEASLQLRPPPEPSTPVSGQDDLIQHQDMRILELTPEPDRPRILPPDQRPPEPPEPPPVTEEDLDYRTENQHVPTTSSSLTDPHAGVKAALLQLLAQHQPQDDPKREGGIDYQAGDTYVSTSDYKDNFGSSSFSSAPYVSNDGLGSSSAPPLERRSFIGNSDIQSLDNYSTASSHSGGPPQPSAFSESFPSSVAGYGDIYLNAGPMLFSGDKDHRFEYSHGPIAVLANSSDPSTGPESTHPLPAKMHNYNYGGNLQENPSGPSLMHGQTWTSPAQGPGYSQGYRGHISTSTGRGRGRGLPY
Casein kinase I isoform gamma-3 (Homo sapiens), sequence (Q9Y6M4 whole entry, looked up, canonical isoform): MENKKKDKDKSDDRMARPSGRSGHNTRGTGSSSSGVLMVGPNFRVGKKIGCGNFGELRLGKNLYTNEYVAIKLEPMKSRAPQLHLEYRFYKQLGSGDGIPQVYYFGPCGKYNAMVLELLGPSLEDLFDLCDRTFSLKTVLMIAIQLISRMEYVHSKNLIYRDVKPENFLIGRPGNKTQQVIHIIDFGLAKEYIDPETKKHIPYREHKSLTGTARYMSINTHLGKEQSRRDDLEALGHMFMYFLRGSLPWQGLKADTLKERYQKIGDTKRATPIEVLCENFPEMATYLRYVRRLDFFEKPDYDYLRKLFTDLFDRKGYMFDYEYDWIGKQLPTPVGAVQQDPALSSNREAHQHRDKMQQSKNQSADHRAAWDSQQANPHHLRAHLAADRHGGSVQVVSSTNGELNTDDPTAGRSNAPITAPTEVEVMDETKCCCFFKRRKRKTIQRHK

C[C@H](NC(=O)c1cnc2n1[C@](C)(Cc1ccc(C#N)cc1)C(=O)N2c1cc(Cl)c(F)c(Cl)c1)C(=O)NC1(c2ccccn2)CC1 [BI 1950]
inactive: residual activity [1] 100% | residual activity [2] 100% | residual activity [3] 100% | residual activity [4] 100% | residual activity [5] 92% | residual activity [6] 100% | residual activity [7] 96% | residual activity [8] 65% | residual activity [9] 100% | residual activity [10] 100% | residual activity [11] 100% | residual activity [12] 100% | residual activity [13] 100% | residual activity [14] 100% | residual activity [15] 100% | residual activity [16] 100% | residual activity [17] 99% | residual activity [18] 100% | inhibition [19] -3.79% | residual activity [20] 100% | residual activity [21] 100% | residual activity [22] 100% | residual activity [23] 82% | residual activity [24] 100% | residual activity [25] 75% | residual activity [26] 92% | inhibition [27] 3.2% | residual activity [28] 83% | residual activity [29] 100% | residual activity [30] 100% | residual activity [31] 100% | residual activity [32] 100% | residual activity [33] 100% | residual activity [34] 100% | residual activity [35] 99% | residual activity [36] 100% | residual activity [37] 100% | residual activity [38] 79% | residual activity [39] 100% | residual activity [40] 100% | residual activity [41] 100% | inhibition [42] 24.1% | residual activity [43] 100% | residual activity [44] 100% | inhibition [45] 17.7%

C[C@@]1(Cc2ccc(C#N)cc2)C(=O)N(c2cc(Cl)cc(Cl)c2)c2ncc(C(=O)NC3(c4nc(C5CCC5)no4)CC3)n21 [BI 9446]
inactive: residual activity [1] 100% | residual activity [2] 100% | residual activity [3] 100% | residual activity [4] 100% | residual activity [5] 100% | residual activity [6] 100% | residual activity [7] 89% | residual activity [8] 72% | residual activity [9] 100% | residual activity [10] 80% | residual activity [11] 100% | residual activity [12] 98% | residual activity [13] 100% | residual activity [14] 100% | residual activity [15] 100% | residual activity [16] 100% | residual activity [17] 100% | residual activity [18] 89% | inhibition [19] 15% | residual activity [20] 96% | residual activity [21] 100% | residual activity [22] 86% | residual activity [23] 79% | residual activity [24] 100% | residual activity [25] 56% | residual activity [26] 64% | inhibition [27] 10.3% | residual activity [28] 65% | residual activity [29] 100% | residual activity [30] 100% | residual activity [31] 100% | residual activity [32] 100% | residual activity [33] 100% | residual activity [34] 100% | residual activity [35] 100% | residual activity [36] 100% | residual activity [37] 100% | residual activity [38] 76% | residual activity [39] 100% | residual activity [40] 100% | residual activity [41] 100% | inhibition [42] 29.7% | residual activity [43] 100% | residual activity [44] 100% | inhibition [45] 31.5%
